From the NIST ThermoML archive (doi:10.1016/j.jct.2018.08.005)
Numbers after ± are expanded uncertainties.

Experiments:
[1] = molar heat capacity at constant pressure; conditions: 100 kPa, Liquid, DSC
[2] = molar heat capacity at constant pressure; xn = mol fraction of the nth substance listed; conditions: 100 kPa, Liquid, DSC, x2 = 0

CCOC(F)(C(F)(F)C(F)(F)C(F)(F)F)C(F)(C(F)(F)F)C(F)(F)F (configuration not stated) [2-trifluoromethyl-3-ethoxydodecafluorohexane]
[1]
Conditions	molar heat capacity at constant pressure [J/K/mol]
297.91 K	466.29 ± 27
307.79 K	472.92 ± 27
317.66 K	479.54 ± 27
327.54 K	486.58 ± 28
337.42 K	494.03 ± 28
347.29 K	500.66 ± 29
357.17 K	508.53 ± 29
367.05 K	517.23 ± 29
376.92 K	523.85 ± 30
386.8 K	531.72 ± 30

CC(C)OC(C)C [diisopropyl ether]
[1]
Conditions	molar heat capacity at constant pressure [J/K/mol]
290.5 K	211.5 ± 12
295.44 K	213.44 ± 12
300.38 K	215.28 ± 12
305.32 K	217.33 ± 12
310.26 K	219.37 ± 13
315.2 K	221.41 ± 13
320.13 K	223.46 ± 13
325.07 K	225.5 ± 13
330.01 K	227.65 ± 13
334.95 K	229.89 ± 13
339.89 K	232.04 ± 13

CC(C)OC(C)C [diisopropyl ether] + CCOC(F)(C(F)(F)C(F)(F)C(F)(F)F)C(F)(C(F)(F)F)C(F)(F)F
[2]
Conditions	molar heat capacity at constant pressure [J/K/mol]
290.5 K	211.5 ± 12
295.44 K	213.44 ± 12
300.38 K	215.28 ± 12
305.32 K	217.33 ± 12
310.26 K	219.37 ± 13
315.2 K	221.41 ± 13
320.13 K	223.46 ± 13
325.07 K	225.5 ± 13
330.01 K	227.65 ± 13
334.95 K	229.89 ± 13
339.89 K	232.04 ± 13
